Data set [1] has as its system Passive cutaneous anaphylaxis (PCA). As to the kind of experiment: Passive cutaneous anaphylaxis (PCA) suppressing effect, method of J. Goose et al. In kind it is in vivo, rats (Sprague Dawley-strain). Conditions: iv, 40 min, rat PCA, compound given intravenously with antigen and Evans blue. How it is done:
According to the method of J. Goose et al (see Immunology 16, 749, 1969), PCA reaction was carried out in the following manner.
To male rats (Sprague Dawley-strain; hereinafter abbreviated as SD-strain), weighing 120 to 150 g, 10 mg/kg of ovalubumin was administered intramuscularly and 2 x 10^10 cells of Bodetalla pertussis vaccine intraperitoneally. After 10 to 12 days, each rat was bled and antiserum was separated.
To other rats (SD-strain, weighing 120 to 150 g) shaved at the back, under ether anesthetization, 0.1 ml of the above antiserum diluted 4-fold was injected intradermally for dermal sensitization. After 48 hours, 1 mg/kg of ovalubumin (antigen), 1 mg/kg of Evans blue (dye) and various N^6-ω-aminoalkyl adenosine compounds and DSCG or isotonic saline were challenged intravenously. After 40 minutes, the diameter of dye spots on the skin and the leak quantity of dye were measured to determine ED50 (50% effective amount) for each compound.
The leak quantity of dye was determined by extracting the dye from the skin peeled off with potassium hydroxide, removing proteins with acetoneafter neutralization with phosphoric acid, and thereafter measuring absorbance at 620 nm of the resultant extract, which step was then followed by calculation therefrom. The N^6-ω-aminoalkyl adenosine compounds provided for the tests are enumerated below: […]

Data set [2] in a line: Acute toxicity tests. Conditions: mouse, in vivo, ip; male mice, intraperitoneally, free form in isotonic saline solution or suspension; brackets = 95% confidence limit. As to the method: To ICR-JCL-strain mice (male, weighing 24 to 28 g), various N^6-w-aminoalkyl adenosine compound-s (each in free form) were administered as isotonic saline solutions or suspensions each in a dosage of 0.1 ml/10 g intraperitoneally for determination of LD50.

Setting [3] is: diameter of dye spots on the skin after 40 minutes, read-out: ED50 By diameter.
The mark [4] stands for this setting: leak quantity of dye after 40 minutes (absorbance at 620 nm), read-out: ED50 By dye quantity.

This note sets out measurements from patent publication EP0061001A1, “Antiallergic agent comprising derivatives of adenosine” (Yamasa Shoyu Kabushiki Kaisha, priority 1981, dated 1982).

Read-outs that look alike come from different tables or passages of the source.

As to `O=C(O)c1cc(=O)c2c(OCC(O)COc3cccc4oc(C(=O)O)cc(=O)c34)cccc2o1` [DSCG, disodium cromoglycate, reference compound], the ED50 (in general, the dose at which the effect has come halfway, by size or by number of responders) in data set [1] (setting [3]) turned out to be 3.3 mg/kg; in data set [1] (setting [4]), 3 mg/kg.

As to `NCCCNc1ncnc2c1ncn2[C@@H]1O[C@H](CO)[C@@H](O)[C@H]1O` [compound 1, N^6-(3-amino-n-propyl)-Ado], the results for the ED50 in data set [1] (setting [3]) and in data set [1] (setting [4]) were 0.87 mg/kg and 0.2 mg/kg, respectively.

With `NCCCCCCNc1ncnc2c1ncn2[C@@H]1O[C@H](CO)[C@@H](O)[C@H]1O` [compound 2, N^6-(6-amino-n-hexyl)-Ado], the 50% effective dose (ED50) was 0.15 mg/kg in data set [1] (setting [3]) and 0.06 mg/kg in data set [1] (setting [4]).

Turning to `NCCCCCCCNc1ncnc2c1ncn2[C@@H]1O[C@H](CO)[C@@H](O)[C@H]1O` [compound 3, N^6-(7-amino-n-heptyl)-Ado], the results for the ED50 in data set [1] (setting [3]) and in data set [1] (setting [4]) were 0.058 mg/kg and 0.06 mg/kg, respectively. Also, the LD50 (commonly the dose expected to kill half of the subjects tested) in data set [2] was found to be 145 mg/kg.

`NCCCCCCCCCNc1ncnc2c1ncn2[C@@H]1O[C@H](CO)[C@@H](O)[C@H]1O` [compound 4, N^6-(9-amino-n-nonyl)-Ado]: the ED50 in data set [1] (setting [3]) and in data set [1] (setting [4]) was 0.084 mg/kg in each case. The same molecule gave an LD50 in data set [2] of 175 mg/kg.

In the case of `NCCCNc1ncnc2c1ncn2[C@@H]1O[C@H](COP(=O)(O)O)[C@@H](O)[C@H]1O` [compound 5, N^6-(3-amino-n-propyl)-5'-AMP], the ED50 came to 0.46 mg/kg in data set [1] (setting [3]) and 0.31 mg/kg in data set [1] (setting [4]).

On to `NCCCCCCNc1ncnc2c1ncn2[C@@H]1O[C@H](COP(=O)(O)O)[C@@H](O)[C@H]1O` [compound 6, N^6-(6-amino-n-hexyl)-5'-AMP], for which the ED50 amounted to 0.51 mg/kg in data set [1] (setting [3]) and 0.32 mg/kg in data set [1] (setting [4]).

As for `NCCCCCCCCCNc1ncnc2c1ncn2[C@@H]1O[C@H](COP(=O)(O)O)[C@@H](O)[C@H]1O` [compound 7, N^6-(9-amino-n-nonyl)-5'-AMP], the results for the ED50 in data set [1] (setting [3]) and in data set [1] (setting [4]) were 0.29 mg/kg and 0.16 mg/kg, respectively. Also, the LD50 in data set [2] was determined as 195 mg/kg.

In the case of `NCCCCNc1ncnc2c1ncn2[C@@H]1O[C@H](CO)[C@@H](OP(=O)(O)O)[C@H]1O` [compound 8], the values for the ED50 in data set [1] (setting [3]) and in data set [1] (setting [4]) were 1.7 mg/kg and 0.64 mg/kg, respectively.

Take `NCCCCCCNc1ncnc2c1ncn2[C@@H]1O[C@H](CO)[C@@H](OP(=O)(O)O)[C@H]1O` [compound 9, N^6-(6-amino-n-hexyl)-3'-AMP]: the ED50 in data set [1] (setting [3]) was 1.9 mg/kg; in data set [1] (setting [4]), 0.7 mg/kg.

As to `NCCCCCCCCNc1ncnc2c1ncn2[C@@H]1O[C@H](CO)[C@@H](OP(=O)(O)O)[C@H]1O` [compound 10, N^6-(8-amino-n-octyl)-3'-AMP], the ED50 in data set [1] (setting [3]) was determined as 1.5 mg/kg; in data set [1] (setting [4]), 0.7 mg/kg. The same molecule came in with an LD50 in data set [2] of 220 mg/kg.

Take `NCCCCNc1ncnc2c1ncn2[C@@H]1O[C@@H]2COP(=O)(O)O[C@H]2[C@H]1O` [compound 11, N^6-(4-amino-n-butyl)-cAMP]: the values for the 50% effective dose (ED50) in data set [1] (setting [3]) and in data set [1] (setting [4]) were 15 mg/kg and 9.4 mg/kg, respectively.

For `NCCCCCCNc1ncnc2c1ncn2[C@@H]1O[C@@H]2COP(=O)(O)O[C@H]2[C@H]1O` [compound 12, N^6-(6-amino-n-hexyl)-cAMP], the ED50 turned out to be 3.3 mg/kg in data set [1] (setting [3]) and 3.2 mg/kg in data set [1] (setting [4]). The molecule further had an LD50 in data set [2] of 165 mg/kg.

Consider `NCCCCCCCCNc1ncnc2c1ncn2[C@@H]1O[C@@H]2COP(=O)(O)O[C@H]2[C@H]1O` [compound 13, N^6-(8-amino-n-octyl)-cAMP], for which the ED50 was 3.7 mg/kg in data set [1] (setting [3]) and 3.1 mg/kg in data set [1] (setting [4]).

In the case of `NCCCCCCCCCNc1ncnc2c1ncn2[C@@H]1O[C@@H]2COP(=O)(O)O[C@H]2[C@H]1O` [compound 14, N^6-(9-amino-n-nonyl)-cAMP], the ED50 in data set [1] (setting [3]) is greater than 3.3 mg/kg; in data set [1] (setting [4]), 3.3 mg/kg.

Turning to `NCCCCCCCCCCNc1ncnc2c1ncn2[C@@H]1O[C@@H]2COP(=O)(O)O[C@H]2[C@H]1O` [compound 15, N^6-(10-amino-n-decanyl)-cAMP], the ED50 stood at 8.2 mg/kg in data set [1] (setting [3]) and 6 mg/kg in data set [1] (setting [4]).
